Results taken from article PMC11844072, “Novel 5,6-dichlorobenzimidazole derivatives as dual BRAFWT and BRAFV600E inhibitors: design, synthesis, anti-cancer activity and molecular dynamics simulations” (BMC Chemistry, 2025).

Experiments:
Test in all cases: NCI 60 single concentration growth inhibition
Type in all cases: cell-based, human
RPMI-8226 = conditions: Homo sapiens, RPMI-8226, Leukemia, read-out: GI%
Protocol: (§1) The synthesized dichlorobenzimidazoles 10a–p were assayed for their influence on divers cancer cell lines according to the method presented in the Additional file A.
(§2) 5. Screening of cytotoxic activity against a panel of sixty human tumor cell lines
(§3) The selected compounds by NCI were evaluated for their anticancer activity in a two-stage process. First, these compounds were screened against the full NCI 60 cell lines panel at a single high dose of 10 µM. Then, the output from the single dose screen is reported as a mean graph. […]
(§4) at five different minimal concentrations.
(§5) Assay protocol. The human tumor cell lines of the cancer screening panel are grown in RPMI 1640 medium containing 5% fetal bovine serum and 2 mM L-glutamine. For a typical screening experiment, cells are inoculated into 96 well microtiter plates in 100 µL at plating densities ranging from 5000 to 40,000 cells/well depending on the doubling time of individual cell lines. After cell inoculation, the microtiter plates are incubated at 37 °C, 5% CO 2, 95% air and 100% relative humidity for 24 h prior to addition of the experimental drugs.
(§6) After 24 h, two plates of each cell line are fixed in situ with TCA, to represent a measurement of the cell population for each cell line at the time of drug addition (Tz). The experimental drugs are solubilized in dimethyl sulfoxide at 400-fold the desired final maximum test concentration and stored frozen prior to use. At the time of drug addition, an aliquot of frozen concentrate is thawed and diluted to twice the desired final maximum test concentration with complete medium containing 50 µg/mL gentamicin. Additional four, 10-fold or ½ log serial dilutions are made to provide a total of five drug concentrations plus control.
(§7) Aliquots of […] of these different drug dilutions are added to the appropriate microtiter wells already containing […] of medium, resulting in the required final drug concentrations.
(§8) Following drug addition, the plates are incubated for an additional 48 h at 37 °C, 5% CO 2, 95% air, and 100% relative humidity. For adherent cells, the assay is terminated by the addition of cold TCA.
(§9) Cells are fixed in situ by the gentle addition of 50 µL of cold 50% (w/v) TCA (final concentration, 10% TCA) and incubated for 60 min at 4 °C. The supernatant is discarded, and the plates are washed five times with tap water and air dried. Sulforhodamine B (SRB) solution ([…]) at 0.4% (w/v) in 1% acetic acid is added to each well, and plates are incubated for 10 min at room temperature. After staining, unbound dye is removed by washing five times with 1% acetic acid and the plates are air dried. Bound stain is subsequently solubilized with 10 mM trizma base, and the absorbance is read on an automated plate reader at a wavelength of 515 nm. For suspension cells, the methodology is […]
(§10) the same except that the assay is terminated by fixing settled cells at the bottom of the wells by gently adding 50 µl of 80% TCA (final concentration, 16% TCA). Using the seven absorbance measurements [time zero, (Tz), control growth, (C), and test growth in the presence of drug at the five concentration levels (Ti)], the percentage growth is calculated at each of the drug concentrations […]
(§11) Percentage growth inhibition is calculated as: [(Ti Tz)/(C–Tz)] x 100 for concentrations for which Ti>/=Tz and [(Ti-Tz)/Tz] x 100 for concentrations for which Ti < Tz.
(§12) Three dose response parameters are calculated for each experimental agent. Growth […]
(§13) concentration resulting in a 50% reduction in the net protein increase (as measured by SRB staining) in control cells during the drug incubation. The drug concentration resulting in total growth inhibition (TGI) is calculated from Ti = Tz. […]
(§14) reduction in the measured protein at the end of the drug treatment as compared to that at the beginning) indicating a net loss of cells following treatment is calculated from [(Ti–Tz)/Tz] x 100 =
(§15) _50. Values are calculated for each of these three parameters if the level of activity is reached; […]

BT-549 = conditions: Homo sapiens, BT-549, Breast cancer, read-out: GI%
Protocol: as §1, §2, §3, §4, §5, §6, §7, §8, §9, §10, §11, §12, §13, §14, §15

HL-60(TB) = conditions: Homo sapiens, Leukemia, read-out: GI%
Protocol: as §1, §2, §3, §4, §5, §6, §7, §8, §9, §10, §11, §12, §13, §14, §15

786-0 = conditions: Homo sapiens, 786-0, Renal cancer, read-out: GI%
Protocol: as §1, §2, §3, §4, §5, §6, §7, §8, §9, §10, §11, §12, §13, §14, §15

CCRF-CEM = conditions: Homo sapiens, Leukemia, read-out: GI%
Protocol: as §1, §2, §3, §4, §5, §6, §7, §8, §9, §10, §11, §12, §13, §14, §15

MDA-MB-468 = conditions: Homo sapiens, MDA-MB-468, Breast cancer, read-out: GI%
Protocol: as §1, §2, §3, §4, §5, §6, §7, §8, §9, §10, §11, §12, §13, §14, §15

SK-MEL-2 = conditions: Homo sapiens, SK-MEL-2, Melanoma, read-out: GI%
Protocol: as §1, §2, §3, §4, §5, §6, §7, §8, §9, §10, §11, §12, §13, §14, §15

A498 = conditions: Homo sapiens, A498, Renal cancer, read-out: GI%
Protocol: as §1, §2, §3, §4, §5, §6, §7, §8, §9, §10, §11, §12, §13, §14, §15

SR = conditions: Homo sapiens, Leukemia, read-out: GI%
Protocol: as §1, §2, §3, §4, §5, §6, §7, §8, §9, §10, §11, §12, §13, §14, §15

MOLT-4 = conditions: Homo sapiens, MOLT-4, Leukemia, read-out: GI%
Protocol: as §1, §2, §3, §4, §5, §6, §7, §8, §9, §10, §11, §12, §13, §14, §15

HOP-62 = conditions: Homo sapiens, HOP-62, Non-small cell lung cancer, read-out: GI%
Protocol: as §1, §2, §3, §4, §5, §6, §7, §8, §9, §10, §11, §12, §13, §14, §15

UACC-257 = conditions: Homo sapiens, UACC-257, Melanoma, read-out: GI%
Protocol: as §1, §2, §3, §4, §5, §6, §7, §8, §9, §10, §11, §12, §13, §14, §15

KM12 = conditions: Homo sapiens, KM12, Colon cancer, read-out: GI%
Protocol: as §1, §2, §3, §4, §5, §6, §7, §8, §9, §10, §11, §12, §13, §14, §15

SF-295 = conditions: Homo sapiens, SF-295, CNS cancer, read-out: GI%
Protocol: as §1, §2, §3, §4, §5, §6, §7, §8, §9, §10, §11, §12, §13, §14, §15

M14 = conditions: Homo sapiens, M14, Melanoma, read-out: GI%
Protocol: as §1, §2, §3, §4, §5, §6, §7, §8, §9, §10, §11, §12, §13, §14, §15

SK-OV-3 = conditions: Homo sapiens, SK-OV-3, Ovarian cancer, read-out: GI%
Protocol: as §1, §2, §3, §4, §5, §6, §7, §8, §9, §10, §11, §12, §13, §14, §15

OVCAR-8 = conditions: Homo sapiens, OVCAR-8, Ovarian cancer, read-out: GI%
Protocol: as §1, §2, §3, §4, §5, §6, §7, §8, §9, §10, §11, §12, §13, §14, §15

ACHN = conditions: Homo sapiens, Renal cancer, read-out: GI%
Protocol: as §1, §2, §3, §4, §5, §6, §7, §8, §9, §10, §11, §12, §13, §14, §15

SF-268 = conditions: Homo sapiens, SF-268, CNS cancer, read-out: GI%
Protocol: as §1, §2, §3, §4, §5, §6, §7, §8, §9, §10, §11, §12, §13, §14, §15

SK-MEL-5 = conditions: Homo sapiens, SK-MEL-5, Melanoma, read-out: GI%
Protocol: as §1, §2, §3, §4, §5, §6, §7, §8, §9, §10, §11, §12, §13, §14, §15

SN12C = conditions: Homo sapiens, Renal cancer, read-out: GI%
Protocol: as §1, §2, §3, §4, §5, §6, §7, §8, §9, §10, §11, §12, §13, §14, §15

HS 578T = conditions: Homo sapiens, Breast cancer, read-out: GI%
Protocol: as §1, §2, §3, §4, §5, §6, §7, §8, §9, §10, §11, §12, §13, §14, §15

Row | SMILES | inhibition at 10 µM (RPMI-8226) [%] | inhibition at 10 µM (BT-549) [%] | inhibition at 10 µM (HL-60(TB)) [%] | inhibition at 10 µM (786-0) [%] | inhibition at 10 µM (CCRF-CEM) [%] | inhibition at 10 µM (MDA-MB-468) [%] | inhibition at 10 µM (SK-MEL-2) [%] | inhibition at 10 µM (A498) [%] | inhibition at 10 µM (SR) [%] | inhibition at 10 µM (MOLT-4) [%] | inhibition at 10 µM (HOP-62) [%] | inhibition at 10 µM (UACC-257) [%] | inhibition at 10 µM (KM12) [%] | inhibition at 10 µM (SF-295) [%] | inhibition at 10 µM (M14) [%] | inhibition at 10 µM (SK-OV-3) [%] | inhibition at 10 µM (OVCAR-8) [%] | inhibition at 10 µM (ACHN) [%] | inhibition at 10 µM (SF-268) [%] | inhibition at 10 µM (SK-MEL-5) [%] | other results
1 | COc1ccc(-c2nc3cc(Cl)c(Cl)cc3n2CC(=O)NN=Cc2cccc(O)c2)cc1 [Compound 10a, 2-(5,6-Dichloro-2-(4-methoxyphenyl)-1H-benzo[d]imidazol-1-yl)-N'-(3-hydroxybenzylidene)acetohydrazide] | 67.4 | 47.8 | 42.6 | 28.6 | 40.6 | 82.1 | 33.6 | 48.9 | 42 | 70.4 | 24.1 | 57.7 | 41 | 67.8 | 41.1 | 35.5 | 29.5 | 40 | 51.5 | 79.7 | inhibition at 10 µM (SN12C): 31.3%; inhibition at 10 µM (HS 578T): 36.9%
2 | COc1ccc(-c2nc3cc(Cl)c(Cl)cc3n2CC(=O)NN=Cc2ccc(O)cc2)cc1 [Compound 10b, 2-(5,6-Dichloro-2-(4-methoxyphenyl)-1H-benzo[d]imidazol-1-yl)-N'-(4-hydroxybenzylidene)acetohydrazide] | 62.1 | 65.6 | 50.7 | 34.8 | 25.4 | 90.1 | 32.3 | 25.9 | 64.7 | 77.2 | 19.3 | 23.9 | 26.3 | 34 | 39.1 | 24.6 | 28 | 33.4 | 52.5 | 52.1 | inhibition at 10 µM (SN12C): 18%; inhibition at 10 µM (HS 578T): 37.8%
3 | COc1ccc(-c2nc3cc(Cl)c(Cl)cc3n2CC(=O)NN=Cc2cccc(OC)c2)cc1 [Compound 10c, 2-(5,6-Dichloro-2-(4-methoxyphenyl)-1H-benzo[d]imidazol-1-yl)-N'-(3-methoxybenzylidene)acetohydrazide] | 47.3 | 52.9 | 28.8 | 19.2 | 41.8 | 76.1 | 19.4 | 22.7 | 48.4 | 70.3 | 6.68 | 20.9 | 17.6 | 22.3 | 34.1 | 10.1 | 13.5 | 20.4 | 48.3 | 44.5 | inhibition at 10 µM (SN12C): 9.21%; inhibition at 10 µM (HS 578T): 28.9%
4 | COc1ccc(C=NNC(=O)Cn2c(-c3ccc(OC)cc3)nc3cc(Cl)c(Cl)cc32)cc1 [Compound 10d, 2-(5,6-Dichloro-2-(4-methoxyphenyl)-1H-benzo[d]imidazol-1-yl)-N'-(4-methoxybenzylidene)acetohydrazide] | 64.9 | 50.3 | 40.9 | 29.1 | 40.2 | 81.8 | 30.9 | 47.2 | 35.1 | 68.9 | 23.6 | 60.4 | 40.8 | 66.8 | 38.2 | 30.4 | 22.4 | 40.2 | 48.6 | 78.9 | inhibition at 10 µM (SN12C): 27.8%; inhibition at 10 µM (HS 578T): 34.6%
